Source: patent EP4603105A1, “PHARMACEUTICAL COMPOSITION CONTAINING CYCLIC COMPOUND HAVING SELECTIVE KRAS INHIBITORY EFFECT AGAINST HRAS AND NRAS” (CHUGAI SEIYAKU KABUSHIKI KAISHA, priority 2022, dated 2024)

What was measured:
[1] = biological target: GDP-bound NRAS wild-type protein (Homo sapiens, UniProt P01111); assay: Binding to NRAS by surface plasmon resonance (SPR), KD and KD ratio to KRAS; details: ratio of KD for GDP-bound NRAS wild-type protein to KD for KRAS
Method in brief: (§1)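 SPR, 30°C: Avi-biotin RAS·GDP captured via Biotin CAPture (~100–300 RU); running buffer HBS pH 7.4, 1 mM DTT, 10 mM MgCl2, 0.01% Tween 20, 10 µM GDP, 4% DMSO. Single-cycle kinetics, 100 µL/min, 75 s injections; 1:1 model → KD.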

[2] = biological target: HRAS wild-type protein (Homo sapiens, UniProt P01112); assay: Binding to HRAS by surface plasmon resonance (SPR), KD and KD ratio to KRAS; details: ratio of KD for HRAS wild-type protein to KD for KRAS
Sequence of HRAS wild-type protein (P01112 whole entry): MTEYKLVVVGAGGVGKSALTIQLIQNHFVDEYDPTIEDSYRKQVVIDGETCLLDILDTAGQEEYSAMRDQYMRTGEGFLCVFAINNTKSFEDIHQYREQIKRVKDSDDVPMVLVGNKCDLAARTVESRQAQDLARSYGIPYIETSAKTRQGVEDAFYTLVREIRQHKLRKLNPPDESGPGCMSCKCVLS
Method in brief: as §1

[3] = biological target: GDP-bound KRAS wild-type protein (Homo sapiens, UniProt P01116); assay: Binding to KRAS by surface plasmon resonance (SPR), dissociation constant KD; details: 1:1 binding model
Sequence of GDP-bound KRAS wild-type protein (P01116 1-188 isoform P01116-2): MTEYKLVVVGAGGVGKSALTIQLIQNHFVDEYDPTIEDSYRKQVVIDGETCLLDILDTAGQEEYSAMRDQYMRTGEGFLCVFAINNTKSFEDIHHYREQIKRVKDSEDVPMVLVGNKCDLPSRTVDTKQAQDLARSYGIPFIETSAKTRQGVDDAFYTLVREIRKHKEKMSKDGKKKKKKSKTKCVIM
Method in brief: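 Each cycle, GDP-bound biotin-Avi RAS was captured (~100–300 RU), compound concentrations were injected low to high for 75 s each at 100 µL/min, then the chip was regenerated. Buffer: HBS pH 7.4, 10 mM MgCl2, 10 µM GDP, 1 mM DTT, 4% DMSO; 30°C. KD from a 1:1 binding model.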

[4] = test system: human lung cancer strain NCI-H441; assay: NCI-H441 cell proliferation inhibitory activity (CellTiter-Glo, 4 days); type: cell-based; details: NCI-H441 cells, 4 days, read-out: NCl-H441 IC50
Method in brief: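 Proliferation was scored by […] measured after the reagent was added to cultures kept at 37°C in 5% carbon dioxide.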

Sequence of GDP-bound NRAS wild-type protein (P01111 whole entry): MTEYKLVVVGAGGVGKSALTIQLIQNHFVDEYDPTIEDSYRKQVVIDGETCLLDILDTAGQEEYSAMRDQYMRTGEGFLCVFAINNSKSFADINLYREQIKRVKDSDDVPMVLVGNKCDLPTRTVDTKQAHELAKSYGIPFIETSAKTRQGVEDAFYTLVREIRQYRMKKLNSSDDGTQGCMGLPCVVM

Row | Compound | NRAS /KRAS [1] | HRAS /KRAS [2] | Kd [3] [nM] | IC50 [4] [nM]
1 | CCO[C@@H]1C[C@H]2C(=O)NC3(CC(C)(C)C3)C(=O)N(C)[C@@H](C(CC)CC)C(=O)N(C)[C@H](C(=O)N(C)C)CC(=O)N(C)[C@@H](COC)C(=O)N[C@@H]([C@@H](C)CC)C(=O)N(C)CC(=O)N(C)[C@H]3C/C=C\CCN(C3=O)[C@@H](CC3CCC(F)(F)CC3)C(=O)N(C)CC(=O)N[C@@H](CCc3cc(F)c(C(F)(F)F)c(F)c3)C(=O)N2C1 [PP2440] | A (a compound having 10 or more and less than 20 is denoted as A) | A (a compound having 10 or more and less than 20 is denoted as A) | 0.44 | 20.1
2 | CCC(CC)[C@H]1C(=O)N(C)[C@H](C(=O)N(C)C)CC(=O)N(C)[C@@H](COC)C(=O)N[C@@H]([C@@H](C)CC)C(=O)N(C)CC(=O)N(C)[C@H]2C/C=C\CCN(C2=O)[C@@H](CC2CCC(F)(F)CC2)C(=O)N(C)CC(=O)N[C@@H](CCc2ccc(C(F)(F)F)c(OC)c2)C(=O)N2C[C@@H](C)C[C@H]2C(=O)NC2(CC(C)(C)C2)C(=O)N1C [PP2442] | A (a compound having 10 or more and less than 20 is denoted as A) | A (a compound having 10 or more and less than 20 is denoted as A) | 0.97 | 79.7
3 | CCO[C@@H]1C[C@H]2C(=O)NC3(CC(C)(C)C3)C(=O)N(C)[C@@H](C(CC)CC)C(=O)N(C)[C@H](C(=O)N(C)C)CC(=O)N(C)[C@@H](COC)C(=O)N[C@@H]([C@@H](C)CC)C(=O)N(C)CC(=O)N(C)[C@H]3C/C=C\CCN(C3=O)[C@@H](CC3CCC(F)(F)CC3)C(=O)N(C)CC(=O)N[C@@H](CCc3ccc(C(F)(F)F)c(Cl)c3)C(=O)N2C1 [PP2444] | A (a compound having 10 or more and less than 20 is denoted as A) | A (a compound having 10 or more and less than 20 is denoted as A) | 0.59 | 32.3
4 | CCOC[C@H]1C(=O)N[C@@H]([C@@H](C)CC)C(=O)N(C)CC(=O)N(C)[C@H]2C/C=C\CCN(C2=O)[C@@H](Cc2ccc(C)cc2)C(=O)N(C)CC(=O)N[C@@H](CCc2ccc(C(F)(F)F)c(OC)c2)C(=O)N2C[C@H](OCC)C[C@H]2C(=O)NC2(CC(C)(C)C2)C(=O)N(C)[C@@H](C2CCCC2)C(=O)N(C)[C@H](C(=O)N(C)CC)CC(=O)N1C [PP2445] | A (a compound having 10 or more and less than 20 is denoted as A) | B (a compound having 3 or more and less than 10 is denoted as B) | 0.14 | 11.7
5 | CCC(CC)[C@H]1C(=O)N(C)[C@H](C(=O)N(C)C)CC(=O)N(C)[C@@H](COC)C(=O)N[C@@H]([C@@H](C)CC)C(=O)N(C)CC(=O)N(C)[C@H]2C/C=C\CCN(C2=O)[C@@H](CC2CCC(F)(F)CC2)C(=O)N(C)CC(=O)N[C@@H](CCc2cc(F)c(C(F)(F)F)c(F)c2)C(=O)N2C[C@@H](C)C[C@H]2C(=O)NC2(CC(C)(C)C2)C(=O)N1C [PP2448] | A (a compound having 10 or more and less than 20 is denoted as A) | A (a compound having 10 or more and less than 20 is denoted as A) | 1.4 | 26.9
6 | CCCOC[C@H]1C(=O)N[C@@H]([C@@H](C)CC)C(=O)N(C)CC(=O)N(C)[C@H]2C/C=C\CCN(C2=O)[C@@H](Cc2ccc(C)cc2)C(=O)N(C)CC(=O)N[C@@H](CCc2ccc(C(F)(F)F)c(OC)c2)C(=O)N2C[C@H](OCC)C[C@H]2C(=O)NC2(CC(C)(C)C2)C(=O)N(C)[C@@H](C2CCCC2)C(=O)N(C)[C@H](C(=O)N(C)C)CC(=O)N1C [PP2449] | A (a compound having 10 or more and less than 20 is denoted as A) | A (a compound having 10 or more and less than 20 is denoted as A) | 0.061 | 7.8
7 | CCOC[C@H]1C(=O)N[C@@H]([C@@H](C)CC)C(=O)N(C)CC(=O)N(C)[C@H]2C/C=C\CCN(C2=O)[C@@H](CC2CCC(F)(F)CC2)C(=O)N(C)CC(=O)N[C@@H](CCc2cc(F)c(C(F)(F)F)c(F)c2)C(=O)N2C[C@H](OCC)C[C@H]2C(=O)NC2(CC(C)(C)C2)C(=O)N(C)[C@@H](C(CC)CC)C(=O)N(C)[C@H](C(=O)N(C)C)CC(=O)N1C [PP2450] | A (a compound having 10 or more and less than 20 is denoted as A) | A (a compound having 10 or more and less than 20 is denoted as A) | 0.55 | 29.2
8 | CCOC[C@H]1C(=O)N[C@@H]([C@@H](C)CC)C(=O)N(C)CC(=O)N(C)[C@H]2C/C=C\CCN(C2=O)[C@@H](Cc2ccc(C)cc2)C(=O)N(C)CC(=O)N[C@@H](CCc2ccc(C(F)(F)F)c(Cl)c2)C(=O)N2C[C@@H](C)C[C@H]2C(=O)NC2(CC(C)(C)C2)C(=O)N(C)[C@@H](C2CCCC2)C(=O)N(C)[C@H](C(=O)N(C)CC)CC(=O)N1C [PP2451] | A (a compound having 10 or more and less than 20 is denoted as A) | A (a compound having 10 or more and less than 20 is denoted as A) | 0.17 | 8.6
9 | CCCOC[C@H]1C(=O)N[C@@H]([C@@H](C)CC)C(=O)N(C)CC(=O)N(C)[C@H]2C/C=C\CCN(C2=O)[C@@H](Cc2ccc(C)cc2)C(=O)N(C)CC(=O)N[C@@H](CCc2ccc(C(F)(F)F)c(Cl)c2)C(=O)N2C[C@@H](C)C[C@H]2C(=O)NC2(CC(C)(C)C2)C(=O)N(C)[C@@H](C2CCCC2)C(=O)N(C)[C@H](C(=O)N(C)C)CC(=O)N1C [PP2453] | A (a compound having 10 or more and less than 20 is denoted as A) | A (a compound having 10 or more and less than 20 is denoted as A) | 0.09 | 9.2
10 | CCC(CC)[C@H]1C(=O)N(C)[C@H](C(=O)N(C)C)CC(=O)N(C)[C@@H](COC)C(=O)N[C@@H]([C@@H](C)CC)C(=O)N(C)CC(=O)N(C)[C@H]2C/C=C\CCN(C2=O)[C@@H](CC2CCC(F)(F)CC2)C(=O)N(C)CC(=O)N[C@@H](CCc2ccc(C(F)(F)F)c(Cl)c2)C(=O)N2C[C@@H](C)C[C@H]2C(=O)NC2(CC(C)(C)C2)C(=O)N1C [PP2454] | AA (a compound having 20 or more is denoted as AA) | A (a compound having 10 or more and less than 20 is denoted as A) | 1.2 | 80.2
11 | CCOC[C@H]1C(=O)N[C@@H]([C@@H](C)CC)C(=O)N(C)CC(=O)N(C)[C@H]2C/C=C\CCN(C2=O)[C@@H](CC2CCC(F)(F)CC2)C(=O)N(C)CC(=O)N[C@@H](CCc2ccc(C(F)(F)F)c(OC)c2)C(=O)N2C[C@@H](C)C[C@H]2C(=O)NC2(CC(C)(C)C2)C(=O)N(C)[C@@H](C(CC)CC)C(=O)N(C)[C@H](C(=O)N(C)C)CC(=O)N1C [PP2458] | A (a compound having 10 or more and less than 20 is denoted as A) | A (a compound having 10 or more and less than 20 is denoted as A) | 1.3 | 80.7
12 | CCOC[C@H]1C(=O)N[C@@H]([C@@H](C)CC)C(=O)N(C)CC(=O)N(C)[C@H]2C/C=C\CCN(C2=O)[C@@H](CC2CCC(F)(F)CC2)C(=O)N(C)CC(=O)N[C@@H](CCc2ccc(C(F)(F)F)c(Cl)c2)C(=O)N2C[C@H](OCC)C[C@H]2C(=O)NC2(CC(C)(C)C2)C(=O)N(C)[C@@H](C(CC)CC)C(=O)N(C)[C@H](C(=O)N(C)C)CC(=O)N1C [PP2460] | A (a compound having 10 or more and less than 20 is denoted as A) | A (a compound having 10 or more and less than 20 is denoted as A) | 0.71 | 18.7
13 | CCCOC[C@H]1C(=O)N[C@@H]([C@@H](C)CC)C(=O)N(C)CC(=O)N(C)[C@H]2C/C=C\CCN(C2=O)[C@@H](Cc2ccc(C)cc2)C(=O)N(C)CC(=O)N[C@@H](CCc2ccc(C(F)(F)F)c(OC)c2)C(=O)N2C[C@@H](C)C[C@H]2C(=O)NC2(CC(C)(C)C2)C(=O)N(C)[C@@H](C2CCCC2)C(=O)N(C)[C@H](C(=O)N(C)CC)CC(=O)N1C [PP2461] | A (a compound having 10 or more and less than 20 is denoted as A) | A (a compound having 10 or more and less than 20 is denoted as A) | 0.15 | 10.6
14 | CCOC[C@H]1C(=O)N[C@@H]([C@@H](C)CC)C(=O)N(C)CC(=O)N(C)[C@H]2C/C=C\CCN(C2=O)[C@@H](CC2CCC(F)(F)CC2)C(=O)N(C)CC(=O)N[C@@H](CCc2cc(F)c(C(F)(F)F)c(F)c2)C(=O)N2C[C@@H](C)C[C@H]2C(=O)NC2(CC(C)(C)C2)C(=O)N(C)[C@@H](C(CC)CC)C(=O)N(C)[C@H](C(=O)N(C)C)CC(=O)N1C [PP2462] | A (a compound having 10 or more and less than 20 is denoted as A) | A (a compound having 10 or more and less than 20 is denoted as A) | 1.6 | 87.2
